This is an account of results in PubChem BioAssay (NCI).

Common to all, as to test: NCI anticancer screen, dose series, 48 h
The test system of assay [1] is LXFL 529 NSCLC.
Assay [2] deals with KM12 colon.
The subject of assay [3] is M19-MEL melanoma.
The subject of assay [4] is OVCAR-5 ovarian.
Assay [5] has as its system DMS 114 small cell lung.
The test system of assay [6] is SF-539 CNS.
Assay [7] relates to XF 498 CNS.
The subject of assay [8] is OVCAR-3 ovarian.
Assay [9] concerns M14 melanoma.
Assay [10] concerns BT-549 breast.
For assay [11], the system named is MDA-N.

Where “and” joins values, the source holds several entries; their conditions need not be identical. Equal values may be shown once.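 Briefly, cells in 96-well plates were exposed to five compound concentrations for 48 h, and endpoints were estimated by linear interpolation. GI50 is the concentration that inhibits growth by half. Definition used: TGI = concentration required for complete inhibition of growth.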

On to `O=C(Cc1ccccc1)NN1C(=O)C(Cl)C1c1ccccc1Cl` (stereo unspecified), for which the TGI is greater than 100 µM in assay [1]; greater than 100 µM in [2]; greater than 100 µM in assay [3]; greater than 100 µM in assay [4]; greater than 88.4 µM in [5]; greater than 100 µM in assay [6]. The TGI in assay [7], in assay [8] and in [9] was greater than 100 µM each time.

For the compound `Cc1cc2ncn(-c3nc4ccccc4nc3C(C#N)S(C)(=O)=O)c2cc1C` (stereo unspecified), the TGI in [1], in [2], in assay [3], in assay [4], in assay [5] and in assay [6] was greater than 100 µM each time. The TGI in [7], in assay [8] and in assay [9] was greater than 100 µM in each case.

As to `N#CCCn1[nH]c(=O)c(Cl)c(Cl)c1=O`, the TGI in [1] amounted to 30.6 µM; in assay [2] it was 32.1 µM; in assay [3] it was 42 µM; in assay [4], 32.8 µM; in [5], 36.5 µM; in assay [6], 51.1 µM. For the same compound, the TGI in assay [7] turned out to be 29.6 µM; in assay [8], 26.7 µM.

For the compound `COC(=O)C(=O)C(C(=O)OC)C(=O)C(=O)Nc1c(C)cccc1C` (stereo unspecified), the TGI in assay [1], in assay [2], in assay [3], in [4], in [5] and in assay [6] was greater than 100 µM each time. The TGI in assay [7], in assay [8] and in assay [9] was greater than 100 µM each time.

Turning to `COc1cc2c(c(OC)c1OC)-c1ccc(SC)c(=O)cc1[C@@H](NCc1ccc(F)cc1)CC2`, the TGI in assay [1] is 10.1 µM and 18.2 µM; in assay [3] it was 75 µM and 13.3 µM; in [4], 75 µM and > 100 µM; in [8] it was less than 0.0075 µM.

Consider `CC(C)N(C(=O)C12C3C4C1C1C2C3C41C#N)C(C)C` (stereo unspecified), for which the TGI in assay [1], in assay [2], in assay [3], in assay [4], in assay [5] and in [6] was greater than 100 µM in each case. For the same compound, the TGI in [7], in [8] and in assay [9] was greater than 100 µM in each case.

Regarding `CN(C)CCNc1ccc2ncn3c4ccccc4c(=O)c1c23`, the TGI is 19.2 µM in assay [1]; 13.3 µM in assay [2]; 12.6 µM in assay [3]; 5.35 µM in assay [4]; 13.7 µM in assay [5]; 16.9 µM in [6]. In addition, the TGI in assay [8] was greater than 100 µM; in [9], 13.7 µM.

Regarding `CC(C)(C)N=CN1C=Cc2nc3ccccc3cc2C1`, the TGI in [1], in assay [2], in assay [3], in [4], in [5] and in [6] was greater than 100 µM in each case. Also, the TGI in assay [7], in assay [8] and in assay [9] was greater than 100 µM in each case.

As to `CC(C)c1cccc(C(C)C)c1NC(=O)C(=O)Cc1nc2ccc([N+](=O)[O-])cc2[nH]c1=O`, the TGI in [1] was greater than 100 µM; in assay [2] it was 28.7 µM; in [3], greater than 100 µM; in assay [4], greater than 100 µM; in assay [5] it was greater than 100 µM; in assay [6], greater than 100 µM. Moreover, the TGI in assay [8] and in [9] was greater than 100 µM each time.

Regarding `O=C1CCN2c3ccccc3[C@H]3Cc4cccc(c4[C@@H]2C3)CCO1`, the TGI was greater than 100 µM in [2]; greater than 100 µM in assay [10]; greater than 100 µM in assay [4]; greater than 100 µM in [6]; 86 µM in assay [8]; 80.3 µM in [11]. For the same compound, the TGI in [9] was 49.1 µM.

Regarding `O=C1Oc2ccccc2C1C/C(=N\Nc1ccccc1)c1ccccc1O` (stereo unspecified), the TGI in [2] is 45.8 µM; in assay [10], greater than 100 µM; in assay [4] it was greater than 100 µM; in assay [6], greater than 100 µM; in [8] it was greater than 100 µM; in assay [11] it was greater than 100 µM. The same compound returned a TGI in assay [9] greater than 100 µM.

For the compound `CC(C)Oc1c(C2(c3ccccc3)SCCCS2)c(=O)c1=O`, the TGI in assay [2], in assay [10], in assay [4], in assay [6], in assay [8] and in [11] was greater than 100 µM each time. Moreover, the TGI in assay [9] was greater than 100 µM.

As for `CCC(NC(C)c1ccccc1)C(=O)c1ccc(OCc2ccccc2)c(OCc2ccccc2)c1` (stereo unspecified), the TGI in [2], in [10], in [4], in assay [6], in assay [8] and in [11] was greater than 100 µM throughout. The compound further showed a TGI in assay [9] greater than 100 µM.

As for `O=Cc1c[nH]c2c(=O)[nH]cnc12`, the TGI in [1], in assay [2], in [3], in [5], in assay [8] and in [9] was greater than 100 µM in each case.

Turning to `CCN(CC)CCCNc1c2c(Cl)cc(Cl)cc2nc2nc(=O)[nH]c(C)c12`, the TGI is 31.1 µM in assay [2]; greater than 100 µM in assay [10]; 50.6 µM in assay [4]; greater than 100 µM in [6]; greater than 100 µM in [8]; 37.7 µM in assay [11]. Besides, in assay [9], the TGI came out at 61.9 µM.

On to `COc1ccc(Nc2nc3ccccc3n3cccc23)cc1OC`, for which the TGI in assay [2] is 29.1 µM; in assay [10], 49.3 µM; in assay [4], greater than 100 µM; in assay [6], 35 µM; in [8], 42.8 µM; in assay [11], 29.4 µM. The same compound registered a TGI in assay [9] of 30.7 µM.

On to `CCOC(=O)c1c2ccc(/C=C/c3ccccn3)ccc-2c(C(=O)OCC)c1N`, for which the TGI in assay [1], in assay [2], in assay [3], in assay [4], in [5] and in [6] was greater than 100 µM in each case. For the same compound, the TGI in [8] and in assay [9] was greater than 100 µM throughout.

As for `O[C@]12C=C(c3nccc4c3[nH]c3ccccc34)[C@@H]3CCN(CCCC/C=C\CC1)C[C@@]31CC3/C=C\CCCCN3[C@H]12` (stereo partly specified), the TGI in assay [2] is 1.3 µM; in assay [10] it was 10.4 µM; in assay [4], 1.83 µM; in assay [6], 4.6 µM; in assay [8] it was 1.55 µM; in assay [11] it was 1.31 µM. The TGI in [9] was 0.896 µM.

Regarding `COC(=O)C1CC2C=CC=CC(=O)C2(C)C1` (stereo unspecified), the TGI in assay [1], in assay [2], in assay [3], in [4], in assay [5] and in assay [6] was greater than 100 µM in each case. Moreover, the TGI in assay [8] was greater than 100 µM; in [9], 88.5 µM.

On to `Cc1c(O)c(=O)ccn1CCN`, for which the TGI in assay [1], in assay [2], in assay [3], in assay [4], in [5] and in assay [9] was greater than 100 µM each time.

For the compound `COc1ccc(C2c3cc4c(cc3OC(NNc3ccccc3)C2C)OCO4)cc1` (stereo unspecified), the TGI in assay [2] is greater than 100 µM; in [10], 76.1 µM; in assay [4], greater than 100 µM; in [6] it was 6.55 µM; in assay [8], 39.8 µM; in [11] it was greater than 100 µM. This compound also came in with a TGI in assay [9] greater than 100 µM.

In the case of `CC1(C)CCN2C(=O)C34CCCC3CC21S4` (stereo unspecified), the TGI in [2], in assay [10], in assay [4], in assay [6], in assay [8] and in assay [11] was greater than 100 µM in each case. The same compound had a TGI in assay [9] greater than 100 µM.

`CCOC1=C2N=C(C(CC)c3ccccc3F)N=C2C(=O)c2ccccc21` (stereo unspecified): the TGI in assay [1], in [2], in assay [3], in [5], in [6] and in [8] was greater than 100 µM each time. This compound registered a TGI in assay [9] greater than 100 µM.

On to `CCOC(=O)N/N=C(/N)c1cccc(Br)c1`, for which the TGI in [2], in assay [10], in assay [4], in assay [6], in [8] and in [11] was greater than 100 µM throughout. This compound also registered a TGI in assay [9] greater than 100 µM.

Regarding `COC(=O)C(CC(C)C)NC(=O)C(NC(=O)c1ccc(-c2ccc(Cl)cc2Cl)o1)C(C)C` (stereo unspecified), the TGI in [2] is 58.9 µM; in assay [10], greater than 100 µM; in assay [4] it was greater than 100 µM; in assay [6], greater than 100 µM; in assay [8], 42.2 µM; in assay [11], greater than 100 µM. Further, the TGI in [9] came out at 65.8 µM.

Take `O=C(CNc1ccccn1)Nn1cnc2ccc(S(=O)(=O)Nc3ccccn3)cc2c1=O`: the TGI in assay [2], in assay [10], in assay [4], in assay [6], in assay [8] and in [11] was greater than 100 µM each time. The same compound had a TGI in assay [9] greater than 100 µM.

On to `COC1(CC[C@@H](C)COC2OC(CO)C(O)C(O)C2O)O[C@H]2C[C@H]3[C@@H]4CC=C5C[C@@H](OC6OC(CO)C(OC7OC(C)C(O)C(O)C7O)C(O)C6OC6OC(C)C(O)C(O)C6O)CC[C@]5(C)[C@H]4CC[C@]3(C)[C@H]2[C@@H]1C` (stereo partly specified), for which the GI50 is 1010 nM in [2]; 2580 nM in assay [10]; 1910 nM in [4]; 1220 nM in [6]; 2040 nM in [8]; 1580 nM in [9]. Besides, the TGI in assay [2] was 2.65 µM; in assay [10], 6.81 µM; in assay [4] it was 10.5 µM; in [6], 2.86 µM; in assay [8], 6.64 µM; in assay [11] it was 7.43 µM. The TGI in assay [9] stood at 8.42 µM.

As to `C[C@@H](CC(O)C(O)C(C)(C)O)C1CCC23CC12CCC1[C@@]2(C)CCC(O)C(C)(C)C2CC(OC2OC(CO)C(O)C(O)C2O)[C@]13C` (stereo partly specified), the TGI in assay [2], in assay [10], in assay [4], in assay [6], in assay [8] and in assay [11] was greater than 10 µM throughout. In assay [9], this compound had a TGI greater than 10 µM.

As for `COc1ccc(C2=Nc3c(nc(OC)[nH]c3=O)NC(c3ccccc3)C2)cc1` (stereo unspecified), the TGI is 36.3 µM in assay [2]; greater than 100 µM in assay [10]; greater than 100 µM in assay [4]; 94.1 µM in [6]; greater than 100 µM in assay [8]; 64.5 µM in [11]. In addition, in assay [9], the TGI was greater than 100 µM.

Turning to `O=c1[nH]nc(Cc2ccccc2)n1/N=C/c1cccs1`, the TGI in assay [2], in assay [10], in [4], in assay [6], in [8] and in [11] was greater than 100 µM in each case. In [9], the TGI is greater than 100 µM.

For `O=C1[C@@H]2C(c3ccc(Br)cc3)=NO[C@@H]2C(=O)N1c1ccc(Cc2ccc(N3C(=O)[C@H]4C(c5ccc(Br)cc5)=NO[C@H]4C3=O)cc2)cc1`, the GI50 is greater than 40 µM in [1]; greater than 40 µM in assay [3]; greater than 40000 nM in assay [4]; greater than 40000 nM in [8]; greater than 40000 nM in assay [9]. The TGI in [1] was greater than 40 µM; in [2], greater than 3.48 µM; in assay [3] it was greater than 40 µM; in assay [4], greater than 40 µM; in [5], greater than 3.48 µM; in assay [6], greater than 3.48 µM. The TGI in assay [8] and in [9] was greater than 40 µM in each case.

For `N#CC(NNC(=O)Cc1ccccc1)c1cccc(O)c1` (stereo unspecified), the TGI in assay [1], in assay [2], in assay [3], in assay [4], in assay [5] and in assay [6] was greater than 100 µM throughout. The compound also yielded a TGI in assay [9] greater than 100 µM.
